Laboratory results: the supplement of paper PMC8253809

Key:
SUDIPGXIX [1] = diffuse intrinsic pontine glioma line; assay: EC50 (inflection of fitted growth-inhibition curve) (log10 M)
In short: (§1)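 Viability readout was CellTiter-Glo luminescence, log2-transformed, normalised per plate to % activity between negative (solvent) and positive control wells, then pooled. This followed a 7-day exposure (3 days for iAstro) at 37 °C, 5% CO2 to a 10-point threefold dilution series (mean top concentration 35 μM), pin-tool delivered in triplicate to patient-derived pHGG/DIPG cell lines and astrocyte controls on 1% Geltrex-coated 384-well plates. Three- and four-parameter log-logistic fits were compared, and the one with the lowest AICc supplied EC50 and maximal response (yFin).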

DIPGX29 = H3.3 K27M diffuse intrinsic pontine glioma line; assay: maximal growth inhibition (yFin) relative to DMSO / staurosporine; higher = more efficacious
In short: as §1

DIPGX37 = H3.3 K27M diffuse intrinsic pontine glioma line; assay: as above
In short: as §1

DIPGX7 = H3.3 K27M diffuse intrinsic pontine glioma line; assay: as above
In short: as §1

DIPGX9 = diffuse intrinsic pontine glioma line; assay: as above
In short: as §1

HABS = astrocyte control; assay: as above
In short: as §1

HGGX2 = paediatric high-grade glioma line; assay: as above
In short: as §1

HGGX39 = paediatric high-grade glioma line; assay: as above
In short: as §1

HGGX42 = H3.3 G34R paediatric high-grade glioma line; assay: as above
In short: as §1

HGGX6 = H3.3 G34R paediatric high-grade glioma line; assay: as above
In short: as §1

SUDIPGIV = diffuse intrinsic pontine glioma line; assay: as above
In short: as §1

SUDIPGVI = diffuse intrinsic pontine glioma line; assay: as above
In short: as §1

SUDIPGXIII = diffuse intrinsic pontine glioma line; assay: as above
In short: as §1

SUDIPGXIX [2] = assay: as above
In short: as §1

SUDIPGXVII = diffuse intrinsic pontine glioma line; assay: as above
In short: as §1

SUDIPGXXI = diffuse intrinsic pontine glioma line; assay: as above
In short: as §1

iAstro = astrocyte control; assay: as above
In short: as §1

SMILES: COc1cc(F)ccc1-c1ncnc(Nc2cccc(CS(C)(=N)=O)c2)n1 (configuration not stated)
- EC50 (log10 M) (SUDIPGXIX [1]): -5.55
- maximal growth inhibition (DIPGX29): 78.9%
- maximal growth inhibition (DIPGX37): 76.2%
- maximal growth inhibition (DIPGX7): 110%
- maximal growth inhibition (DIPGX9): 103%
- maximal growth inhibition (HABS): 56.8%
- maximal growth inhibition (HGGX2): 57.3%
- maximal growth inhibition (HGGX39): 68%
- maximal growth inhibition (HGGX42): 67%
- maximal growth inhibition (HGGX6): 84.1%
- maximal growth inhibition (SUDIPGIV): 97.4%
- maximal growth inhibition (SUDIPGVI): 89.8%
- maximal growth inhibition (SUDIPGXIII): 87%
- maximal growth inhibition (SUDIPGXIX [2]): 100%
- maximal growth inhibition (SUDIPGXVII): 94.9%
- maximal growth inhibition (SUDIPGXXI): 114%
- maximal growth inhibition (iAstro): 24.7%

SMILES: O=C(Nc1c[nH]nc1-c1nc2ccc(CN3CCOCC3)cc2[nH]1)NC1CC1 [AT9283]
- EC50 (log10 M) (SUDIPGXIX [1]): -5.33
- maximal growth inhibition (DIPGX29): 108%
- maximal growth inhibition (DIPGX37): 107%
- maximal growth inhibition (DIPGX7): 110%
- maximal growth inhibition (DIPGX9): 109%
- maximal growth inhibition (HABS): 94%
- maximal growth inhibition (HGGX2): 96.7%
- maximal growth inhibition (HGGX39): 91.6%
- maximal growth inhibition (HGGX42): 104%
- maximal growth inhibition (HGGX6): 97.8%
- maximal growth inhibition (SUDIPGIV): 99.7%
- maximal growth inhibition (SUDIPGVI): 101%
- maximal growth inhibition (SUDIPGXIII): 97.8%
- maximal growth inhibition (SUDIPGXIX [2]): 112%
- maximal growth inhibition (SUDIPGXVII): 102%
- maximal growth inhibition (SUDIPGXXI): 114%
- maximal growth inhibition (iAstro): 27.5%

SMILES: C[C@@]12OC(=O)[C@]1([C@@H](O)[C@@H]1C=CCCC1)NC(=O)[C@@H]2CCCl [MARIZOMIB]
- EC50 (log10 M) (SUDIPGXIX [1]): -6.19
- maximal growth inhibition (DIPGX29): 32.8%
- maximal growth inhibition (DIPGX37): 99.7%
- maximal growth inhibition (DIPGX7): 101%
- maximal growth inhibition (DIPGX9): 101%
- maximal growth inhibition (HABS): 54.9%
- maximal growth inhibition (HGGX2): 98.7%
- maximal growth inhibition (HGGX39): 96.6%
- maximal growth inhibition (HGGX42): 62.8%
- maximal growth inhibition (HGGX6): 55.2%
- maximal growth inhibition (SUDIPGIV): 119%
- maximal growth inhibition (SUDIPGVI): 103%
- maximal growth inhibition (SUDIPGXIII): 28.3%
- maximal growth inhibition (SUDIPGXIX [2]): 94.2%
- maximal growth inhibition (SUDIPGXVII): 40.4%
- maximal growth inhibition (SUDIPGXXI): 109%
- maximal growth inhibition (iAstro): 89.6%

SMILES: C[C@@H]1O[C@@H](O[C@H]2C[C@@H](O)[C@]3(CO)[C@H]4[C@H](O)C[C@]5(C)[C@@H](C6=CC(=O)OC6)CC[C@]5(O)[C@@H]4CC[C@]3(O)C2)[C@H](O)[C@H](O)[C@H]1O [OUABAIN]
- EC50 (log10 M) (SUDIPGXIX [1]): -6.41
- maximal growth inhibition (DIPGX29): 53.4%
- maximal growth inhibition (DIPGX37): 46.7%
- maximal growth inhibition (DIPGX7): 100%
- maximal growth inhibition (DIPGX9): 70.1%
- maximal growth inhibition (HABS): 69.1%
- maximal growth inhibition (HGGX2): 63.9%
- maximal growth inhibition (HGGX39): 75.1%
- maximal growth inhibition (HGGX42): 53.3%
- maximal growth inhibition (HGGX6): 64.9%
- maximal growth inhibition (SUDIPGIV): 103%
- maximal growth inhibition (SUDIPGVI): 60.1%
- maximal growth inhibition (SUDIPGXIII): 46.9%
- maximal growth inhibition (SUDIPGXIX [2]): 83.6%
- maximal growth inhibition (SUDIPGXVII): 73.5%
- maximal growth inhibition (SUDIPGXXI): 90.6%
- maximal growth inhibition (iAstro): 47.1%

SMILES: CC(=O)OC[C@H]1O[C@@H]([S-])[C@H](OC(C)=O)[C@@H](OC(C)=O)[C@@H]1OC(C)=O.CCP(CC)CC.[Au+] [AURANOFIN]
- EC50 (log10 M) (SUDIPGXIX [1]): -5.93
- maximal growth inhibition (DIPGX29): 93.1%
- maximal growth inhibition (DIPGX37): 90.9%
- maximal growth inhibition (DIPGX7): 119%
- maximal growth inhibition (DIPGX9): 118%
- maximal growth inhibition (HABS): 113%
- maximal growth inhibition (HGGX2): 110%
- maximal growth inhibition (HGGX39): 107%
- maximal growth inhibition (HGGX42): 116%
- maximal growth inhibition (HGGX6): 92.2%
- maximal growth inhibition (SUDIPGIV): 117%
- maximal growth inhibition (SUDIPGVI): 114%
- maximal growth inhibition (SUDIPGXIII): 113%
- maximal growth inhibition (SUDIPGXIX [2]): 118%
- maximal growth inhibition (SUDIPGXVII): 117%
- maximal growth inhibition (SUDIPGXXI): 122%
- maximal growth inhibition (iAstro): 106%

SMILES: COC1=CC(c2cc3ccccc3[nH]2)=N/C1=C\c1[nH]c(C)cc1C [OBATOCLAX]
- EC50 (log10 M) (SUDIPGXIX [1]): -5.51
- maximal growth inhibition (DIPGX29): 126%
- maximal growth inhibition (DIPGX37): 128%
- maximal growth inhibition (DIPGX7): 129%
- maximal growth inhibition (DIPGX9): 131%
- maximal growth inhibition (HABS): 128%
- maximal growth inhibition (HGGX2): 115%
- maximal growth inhibition (HGGX39): 124%
- maximal growth inhibition (HGGX42): 119%
- maximal growth inhibition (HGGX6): 123%
- maximal growth inhibition (SUDIPGIV): 131%
- maximal growth inhibition (SUDIPGVI): 128%
- maximal growth inhibition (SUDIPGXIII): 108%
- maximal growth inhibition (SUDIPGXIX [2]): 143%
- maximal growth inhibition (SUDIPGXVII): 128%
- maximal growth inhibition (SUDIPGXXI): 127%
- maximal growth inhibition (iAstro): 101%

SMILES: C=CCNC1=C2C[C@@H](C)C[C@H](OC)[C@H](O)[C@@H](C)/C=C(\C)[C@H](OC(N)=O)[C@@H](OC)/C=C\C=C(/C)C(=O)NC(=CC1=O)C2=O [TANESPIMYCIN]
- EC50 (log10 M) (SUDIPGXIX [1]): -6.32
- maximal growth inhibition (DIPGX29): 70%
- maximal growth inhibition (DIPGX37): 104%
- maximal growth inhibition (DIPGX9): 108%
- maximal growth inhibition (HABS): 114%
- maximal growth inhibition (HGGX2): 84.8%
- maximal growth inhibition (HGGX39): 97.3%
- maximal growth inhibition (HGGX42): 50.5%
- maximal growth inhibition (HGGX6): 33.9%
- maximal growth inhibition (SUDIPGIV): 72.4%
- maximal growth inhibition (SUDIPGVI): 39.8%
- maximal growth inhibition (SUDIPGXIII): 73.1%
- maximal growth inhibition (SUDIPGXIX [2]): 92.1%
- maximal growth inhibition (SUDIPGXVII): 74.7%
- maximal growth inhibition (SUDIPGXXI): 122%
- maximal growth inhibition (iAstro): 39.3%

SMILES: COc1ncc(-c2ccc3nccc(-c4ccnnc4)c3c2)cc1NS(=O)(=O)c1ccc(F)cc1F [OMIPALISIB]
- EC50 (log10 M) (SUDIPGXIX [1]): -7
- maximal growth inhibition (DIPGX29): 105%
- maximal growth inhibition (DIPGX37): 116%
- maximal growth inhibition (DIPGX9): 104%
- maximal growth inhibition (HABS): 101%
- maximal growth inhibition (HGGX2): 105%
- maximal growth inhibition (HGGX39): 115%
- maximal growth inhibition (HGGX42): 99.4%
- maximal growth inhibition (HGGX6): 110%
- maximal growth inhibition (SUDIPGIV): 110%
- maximal growth inhibition (SUDIPGVI): 112%
- maximal growth inhibition (SUDIPGXIII): 108%
- maximal growth inhibition (SUDIPGXIX [2]): 108%
- maximal growth inhibition (SUDIPGXVII): 111%
- maximal growth inhibition (SUDIPGXXI): 118%
- maximal growth inhibition (iAstro): 41.1%

SMILES: CCCc1cc(C)[nH]c(=O)c1CNC(=O)c1cc(-c2ccnc(N3CCN(C)CC3)c2)cc2c1cnn2C(C)C [GSK343]
- EC50 (log10 M) (SUDIPGXIX [1]): -4.69
- maximal growth inhibition (DIPGX29): 120%
- maximal growth inhibition (DIPGX37): 122%
- maximal growth inhibition (DIPGX7): 114%
- maximal growth inhibition (DIPGX9): 123%
- maximal growth inhibition (HABS): 69%
- maximal growth inhibition (HGGX2): 113%
- maximal growth inhibition (HGGX39): 20.4%
- maximal growth inhibition (HGGX42): 115%
- maximal growth inhibition (HGGX6): 111%
- maximal growth inhibition (SUDIPGIV): 74.3%
- maximal growth inhibition (SUDIPGVI): 112%
- maximal growth inhibition (SUDIPGXIII): 87.9%
- maximal growth inhibition (SUDIPGXIX [2]): 125%
- maximal growth inhibition (SUDIPGXXI): 126%
- maximal growth inhibition (iAstro): 66.2%

SMILES: CC(C)C[C@H](NC(=O)[C@H](CCc1ccccc1)NC(=O)CN1CCOCC1)C(=O)N[C@@H](Cc1ccccc1)C(=O)N[C@@H](CC(C)C)C(=O)[C@@]1(C)CO1 [CARFILZOMIB]
- EC50 (log10 M) (SUDIPGXIX [1]): -6.53
- maximal growth inhibition (DIPGX29): 96.2%
- maximal growth inhibition (DIPGX37): 98.9%
- maximal growth inhibition (DIPGX7): 92%
- maximal growth inhibition (DIPGX9): 115%
- maximal growth inhibition (HABS): 108%
- maximal growth inhibition (HGGX2): 97.2%
- maximal growth inhibition (HGGX39): 107%
- maximal growth inhibition (HGGX42): 77%
- maximal growth inhibition (HGGX6): 91.3%
- maximal growth inhibition (SUDIPGIV): 98.6%
- maximal growth inhibition (SUDIPGVI): 95.3%
- maximal growth inhibition (SUDIPGXIII): 105%
- maximal growth inhibition (SUDIPGXIX [2]): 116%
- maximal growth inhibition (SUDIPGXVII): 105%
- maximal growth inhibition (iAstro): 87.1%

SMILES: CCOc1cc(C(C)(C)C)ccc1C1=N[C@@](C)(c2ccc(Cl)cc2)[C@@](C)(c2ccc(Cl)cc2)N1C(=O)N1CCN(CCCS(C)(=O)=O)CC1 [RG7112]
- EC50 (log10 M) (SUDIPGXIX [1]): -5.56
- maximal growth inhibition (DIPGX29): 93.2%
- maximal growth inhibition (DIPGX7): 70.5%
- maximal growth inhibition (DIPGX9): 109%
- maximal growth inhibition (HABS): 108%
- maximal growth inhibition (HGGX2): 101%
- maximal growth inhibition (HGGX39): 96.2%
- maximal growth inhibition (HGGX42): 94.2%
- maximal growth inhibition (HGGX6): 86.4%
- maximal growth inhibition (SUDIPGIV): 55.8%
- maximal growth inhibition (SUDIPGVI): 35.2%
- maximal growth inhibition (SUDIPGXIII): 61.6%
- maximal growth inhibition (SUDIPGXIX [2]): 113%
- maximal growth inhibition (SUDIPGXVII): 102%
- maximal growth inhibition (SUDIPGXXI): 115%
- maximal growth inhibition (iAstro): 82.6%
